Measured values published in US11254907B2, “Fungal volatile organic compound enhances plant s growth characteristics” (The United States of America as represented by the …, priority 2018, dated 2022).

What was measured:
[1] = system: peach rootstock 'Bailey-OP' (Prunus persica); test: Root primordia induction from peach in vitro shoots on mLP with IBA; type: in vivo
Protocol: A two-step process was tested to induce roots from in vitro shoots and establish plants in the greenhouse. In vitro shoots of the peach rootstock ‘Bailey-OP’ (Prunus persica) of longer than 2 cm in height were first transferred to a modified Lepoivre LP medium (mLP) containing basal salts of LP medium (Quorin and Lepoivre, Acta Hort. 78:437-442, 1977) and a vitamin mixture composed of 1.0 mg/L thiamine-HCl, 1.0 mg/L nicotinic acid, 1.0 mg/L pyridoxine-HCl, 4.0 mg/L glycine, 0.2 mg/L biotin and 2.0 mg/L Ca-pathothenate (mLP) supplemented with various concentrations of indole-3-butyric acid (IBA) and cultured for two weeks to induce root primordia. The IBA concentrations ranged from 0.5 to 2.0 mg/L. Shoots with root primordia at the base were then taken out and separated into two groups. The first group was cultured on mLP medium without any growth regulators for continuous plant development as a control, whereas the second group was maintained on a similar growth regulator-free mLP medium but with a culture tube closure containing MVOC-emitting fungus of C. sp isolate TC09 (Accession No. NRRL 67603).

[2] = system: tobacco seedlings; test: Polar auxin transport interference test (NPA in plant culture medium with MVOCs); type: in vivo, Nicotiana tabacum; settings: 10 μM NPA, 20 days
Protocol: In vitro containment conditions for fungal cultures were modified to utilize culture tube closure or cap (3×4 cm, diameter×length, closure for 25 mm culture tubes, Sigma C5791) in order to mitigate problems related to condensation build-up inside the filter-sealed microcentrifuge tubes that could suffocate growing fungus and reduce MVOC emission, as subsequently noticed. For each sterile closure cap, 5 ml semi-solid MS medium was added and 10 μl of conidial suspension at a density of 1×10^5 CFU per ml was subsequently introduced. The fungal culture in the closure was then placed in a Magenta™ GA7 vessel that contains tobacco seedlings. For controls, a blank culture cap was added. All experiments were repeated three times. Each involved three treated and untreated vessels, respectively, and three replicate plants for each vessel. Cultures were placed under light conditions with a 16-h photoperiod at 25° C. Plants were treated with 10 or 20 d of fungal exposure duration. Regardless of exposure duration used, plant growth was monitored and compared with controls without fungal cultures at the end of 20 d after introduction of fungal cultures. For polar auxin transport interference tests, 10 μM auxin transport inhibitor N-1-naphthylphthalamic acid (NPA) is incorporated in plant culture medium and used to assess plant response in the presence of MVOCs. […]

[3] = NPA as low as 5 μM; cited from earlier work

## O=C(O)CCCc1c[nH]c2ccccc12 [IBA, indole-3-butyric acid]
[1]; 0.5 mg/L IBA
  root formation efficiency: very low root formation efficiency
[1]; 1.0 mg/L IBA
  root formation frequency: up to 70%
[1]; 1.5 mg/L IBA
  root induction efficiency: great reduction in root induction efficiency
[1]; 2.0 mg/L IBA
  root induction efficiency: less than 20%

## O=C(O)c1ccccc1C(=O)Nc1cccc2ccccc12 [NPA, N-1-naphthylphthalamic acid]
[2]
  effect on root length, number of leaves and largest leaf length of C. sp treated plants: remained similar
  lateral root formation: arrested lateral root formation
[3]
  effect on stimulatory effects of Fusarium oxysporum MVOCs on plant biomass increase: completely negating
